Data from US20170008888A1 (KYORIN PHARMACEUTICAL CO., LTD., priority 2014, published 2017).
Like-named read-outs stand apart in the source and are kept apart here.

How the values were obtained:
ERK5 = molecular target: T1, ERK5 (Homo sapiens, UniProt Q13164); test: Probe-based (AX9989 acyl phosphate ATP probe) kinase profiling in Jurkat lysate: ERK5; format: binding; conditions: for IC50: Jurkat lysate; for inhibition at 0.1 µM: screening concentration 0.1 μM
T1 construct: screened for activity against several kinases in Jurkat cells; endogenous in cells; host or cells: Jurkat cell lysate
Summary of the method: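 Gel-filtered Jurkat lysate (5 mg/ml, 20 mM MnCl2) preincubated 15 min at room temperature with compound, then labelled with 5 μM AX9989 acyl phosphate ATP probe. Probe-labelled ERK5 active-site peptides quantified by LC/MS after trypsin digestion and streptavidin capture; IC50 calculated from percent inhibition at the screening concentration.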

AurB or AurC = test: Probe-based (AX9989) kinase profiling in Jurkat lysate: AurB or AurC; format: binding; conditions: for AurB or AurC Inhibition % at indicated screening concentration: screening concentration 1 μM
Summary of the method: (§1)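 Compounds were pre-incubated for 15 min at room temperature with gel-filtered Jurkat cell lysate supplemented with 20 mM MnCl2, after which the acyl phosphate ATP probe AX9989 was added at 5 μM final. Labeled active-site peptides were enriched after tryptic digestion and measured by LC/MS, with percent inhibition taken relative to samples without compound.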

ABL or ARG = test: Probe-based (AX9989) kinase profiling in Jurkat lysate: ABL or ARG; format: binding; conditions: for ABL or ARG Inhibition % at indicated screening concentration: screening concentration 1 μM
Summary of the method: as §1

human PBMCs = test: Human PBMC TNF-α response to endotoxin (ELISA); format: cell-based; conditions: 0.1 μg/ml LPS 16 h, read-out: EC50 for the inhibition of the human PBMC TNF-α response to endotoxin, ave. ± S.D.
Summary of the method: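 PBMCs at 2e6 cells/ml in RPMI 1640 with 10% charcoal-dextran-treated FBS were pre-treated 1 h at 37 °C with compound (4-point 1:5 dilution from 10 μM). Stimulation with 0.1 μg/ml E. coli 0111:B4 LPS for 16 h; TNF-α measured by ELISA (A450) in 25-fold diluted supernatant.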

[1] = molecular target: T2, BRD4 bromodomain domain I [BRD4(1)] (Homo sapiens, UniProt O60885); test: BRD4 bromodomain domain 1 inhibition assay (TR-FRET); format: binding; conditions: screening concentration 10 μM
T2 construct: BRD4 bromodomain domain I [BRD4(1)]; purchased Cayman Chemicals
Summary of the method: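 0.5% DMSO, in triplicate, using Cayman BRD4(1) TR-FRET protocol with slight modification. 670/620 nm ratio normalized to 10 μM JQ1, with DMSO control set as 0% inhibition.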

[2] = calculated from percent inhibition of AX9989 labeling and the screening concentration
[3] = screening concentration 1.0 μM, read-out: Kinase inhibition % at indicated screening concentration: ERK5
[4] = read-out: Kinase inhibition % at indicated screening concentration: ERK5
[5] = screening concentration 10.0 μM
[6] = calculated from percent inhibition and screening concentration, AX9989 probe
[7] = screening concentration 1 μM, read-out: ERK5 Inhibition % at indicated screening concentration

T1 sequence (Q13164 whole entry): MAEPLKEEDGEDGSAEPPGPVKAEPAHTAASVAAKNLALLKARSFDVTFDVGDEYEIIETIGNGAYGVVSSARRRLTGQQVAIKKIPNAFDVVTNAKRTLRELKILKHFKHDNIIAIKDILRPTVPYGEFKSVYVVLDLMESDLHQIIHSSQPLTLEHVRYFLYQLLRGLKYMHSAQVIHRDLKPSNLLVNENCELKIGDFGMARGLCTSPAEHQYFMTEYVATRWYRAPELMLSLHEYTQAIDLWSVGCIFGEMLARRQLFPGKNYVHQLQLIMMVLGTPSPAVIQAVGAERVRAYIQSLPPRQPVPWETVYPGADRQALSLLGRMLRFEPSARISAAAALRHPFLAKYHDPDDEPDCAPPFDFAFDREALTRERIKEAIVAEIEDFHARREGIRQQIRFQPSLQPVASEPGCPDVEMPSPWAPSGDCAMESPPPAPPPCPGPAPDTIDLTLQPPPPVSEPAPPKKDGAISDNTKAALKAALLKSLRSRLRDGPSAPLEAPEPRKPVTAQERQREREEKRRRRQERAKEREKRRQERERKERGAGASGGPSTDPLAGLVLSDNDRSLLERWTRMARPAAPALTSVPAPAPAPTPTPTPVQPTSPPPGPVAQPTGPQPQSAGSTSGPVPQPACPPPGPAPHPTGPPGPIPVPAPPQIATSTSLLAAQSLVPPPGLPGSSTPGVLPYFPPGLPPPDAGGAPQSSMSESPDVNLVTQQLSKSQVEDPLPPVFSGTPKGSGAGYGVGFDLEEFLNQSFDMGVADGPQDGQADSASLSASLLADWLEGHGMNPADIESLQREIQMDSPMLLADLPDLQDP

| Compound | IC50 (ERK5; [2]) [nM] | inhibition at 1 µM (ERK5; [3]) [%] | Kinase inhibition % at indicated screening concentration: AurB or AurC (AurB or AurC; screening concentration 1.0 μM) | Kinase inhibition % at indicated screening concentration: ABL or ARG (ABL or ARG; screening concentration 1.0 μM) | EC50 (human PBMCs) [nM] | inhibition at 10 µM [1] [%] | inhibition at 0.1 µM (ERK5; [4]) [%] | Kinase inhibition % at indicated screening concentration: AurB or AurC (AurB or AurC; screening concentration 0.1 μM) | Kinase inhibition % at indicated screening concentration: ABL or ARG (ABL or ARG; screening concentration 0.1 μM) | inhibition at 10 µM (ERK5; screening concentration 10.0 μM, read-out: Kinase inhibition % at indicated screening concentration: ERK5) [%] | Kinase inhibition % at indicated screening concentration: AurB or AurC (AurB or AurC; [5]) | Kinase inhibition % at indicated screening concentration: ABL or ARG (ABL or ARG; [5]) | IC50 (ERK5; [6]) [nM] | inhibition at 1 µM (ERK5; [7]) [%] | AurB or AurC Inhibition % at indicated screening concentration (AurB or AurC) | ABL or ARG Inhibition % at indicated screening concentration (ABL or ARG) |
| --- | --- | --- | --- | --- | --- | --- | --- | --- | --- | --- | --- | --- | --- | --- | --- | --- |
| CCOc1cc(C(=O)N[C@H]2CCCOC2)ccc1Nc1cc2c(cn1)N(C)C(=O)c1ccccc1N2C [Compound 100] | > 500 | 50 to 75 | E (E is ≦35%) | E (E is ≦35%) | 1020 | 70 to 85 |  |  |  |  |  |  |  |  |  |  |
| CCOc1cc(C(=O)NCCOCCO)ccc1Nc1cc2c(cn1)N(C)C(=O)c1ccccc1N2C [Compound 101] | 101 to 500 | 75 to 90 | E (E is ≦35%) | E (E is ≦35%) | 970 | 70 to 85 |  |  |  |  |  |  |  |  |  |  |
| CN1C(=O)c2ccccc2N(C)c2cc(NC3CCOCC3)ncc21 [Compound 102] | 101 to 500 | 75 to 90 | E (E is ≦35%) | E (E is ≦35%) | 2520 | < 70 |  |  |  |  |  |  |  |  |  |  |
| CCOc1cc(C(=O)NCCN(CC)CC)ccc1Nc1cc2c(cn1)N(C)C(=O)c1ccccc1N2C [Compound 103] | ≤ 50 |  |  |  | 620 ± 40 | 70 to 85 | > 90 | E (E is ≦35%) | E (E is ≦35%) |  |  |  |  |  |  |  |
| CCOc1cc(C(=O)NCCN2CCCC2)ccc1Nc1cc2c(cn1)N(C)C(=O)c1ccccc1N2C [Compound 105] | 101 to 500 | 75 to 90 | E (E is ≦35%) | E (E is ≦35%) | 1100 | 70 to 85 |  |  |  |  |  |  |  |  |  |  |
| Cc1cc(CN2CCCC2)ccc1Nc1cc2c(cn1)N(C)C(=O)c1ccccc1N2C [Compound 106, 5,11-dimethyl-3-(2-methyl-4-(pyrrolidin-1-ylmethyl)phenylamino)-5H-benzo[e]pyrido[3,4-b][1,4]diazepin-10(11H)-one] | ≤ 50 | > 90 | E (E is ≦35%) | E (E is ≦35%) | 2840 | < 70 |  |  |  |  |  |  |  |  |  |  |
| CCOc1cc(C(=O)NCCc2ccncc2)ccc1Nc1cc2c(cn1)N(C)C(=O)c1ccccc1N2C [Compound 107] | > 500 | 50 to 75 | E (E is ≦35%) | E (E is ≦35%) | 1310 | < 70 |  |  |  |  |  |  |  |  |  |  |
| CCOc1cc(C(=O)N2CCN(CC)CC2)ccc1Nc1cc2c(cn1)N(C)C(=O)c1ccccc1N2C [Compound 108] | ≤ 50 | > 90 | E (E is ≦35%) | E (E is ≦35%) | 700 | 70 to 85 |  |  |  |  |  |  |  |  |  |  |
| CN1C(=O)c2ccccc2N(C)c2cc(Nc3ccc(C(=O)N4CC[C@@H](N(C)C)C4)cc3F)ncc21 [Compound 110] | ≤ 50 |  |  |  | 1760 ± 500 | < 70 |  |  |  | > 90 | C (C is >50% to ≦75%) | E (E is ≦35%) |  |  |  |  |
| CCOc1cc(C(=O)N2CCOCC2)ccc1Nc1cc2c(cn1)N(C)C(=O)c1ccccc1N2C [Compound 111] | ≤ 50 | ≤ 35 | E (E is ≦35%) | E (E is ≦35%) | 540 | > 85 |  |  |  |  |  |  |  |  |  |  |
| CCOc1cc(C(=O)N2CC(N3CCCCC3)C2)ccc1Nc1cc2c(cn1)N(C)C(=O)c1ccccc1N2C [Compound 114] | ≤ 50 |  |  |  | 530 | > 85 | > 90 | E (E is ≦35%) | E (E is ≦35%) |  |  |  |  |  |  |  |
| CCOc1cc(C(=O)N2CC[C@@H](N(C)C)C2)ccc1Nc1cc2c(cn1)N(C)C(=O)c1ccccc1N2C [Compound 115] | ≤ 50 | > 90 | E (E is ≦35%) | E (E is ≦35%) | 840 ± 530 | 70 to 85 |  |  |  |  |  |  |  |  |  |  |
| CCOc1cc(C(=O)N2CCC(CN3CCOCC3)CC2)ccc1Nc1cc2c(cn1)N(C)C(=O)c1ccccc1N2C [Compound 120] | ≤ 50 | > 90 | E (E is ≦35%) | E (E is ≦35%) | 860 | > 85 |  |  |  |  |  |  |  |  |  |  |
| CCOc1cc(C(=O)N(CC)CCN(CC)CC)ccc1Nc1cc2c(cn1)N(C)C(=O)c1ccccc1N2C [Compound 122] | ≤ 50 | > 90 | E (E is ≦35%) | E (E is ≦35%) | 1130 ± 380 | 70 to 85 |  |  |  |  |  |  |  |  |  |  |
| CCOc1cc(C(=O)N2CCC(NC(C)C)C2)ccc1Nc1cc2c(cn1)N(C)C(=O)c1ccccc1N2C (stereo not drawn) [Compound T4] |  |  |  |  | 490 | > 85 |  |  |  |  |  |  | ≤ 50 | > 90 | E (E is ≦35%) | E (E is ≦35%) |
| CCOc1cc(C(=O)N2C[C@H]3CCN[C@H]3C2)ccc1Nc1cc2c(cn1)N(C)C(=O)c1ccccc1N2C [Compound T5] |  |  |  |  | 840 | 70 to 85 |  |  |  |  |  |  | ≤ 50 | > 90 | E (E is ≦35%) | E (E is ≦35%) |
| CCOc1cc(C(=O)N2CCN(C3CCN(C)CC3)CC2)ccc1Nc1cc2c(cn1)N(C)C(=O)c1ccccc1N2C [Compound T8] |  |  |  |  | 410 ± 120 | > 85 |  |  |  |  |  |  | ≤ 50 | > 90 | E (E is ≦35%) | E (E is ≦35%) |
| CCOc1cc(C(=O)N2CC[C@@H](NCCF)C2)ccc1Nc1cc2c(cn1)N(C)C(=O)c1ccccc1N2C [Compound T9] |  |  |  |  | 590 | 70 to 85 |  |  |  |  |  |  | ≤ 50 | > 90 | E (E is ≦35%) | E (E is ≦35%) |
| CCOc1cc(C(=O)N2CCC(N3CC[C@@H](O)C3)CC2)ccc1Nc1cc2c(cn1)N(C)C(=O)c1ccccc1N2C [Compound T10] |  |  |  |  | 650 | > 85 |  |  |  |  |  |  | ≤ 50 | > 90 | E (E is ≦35%) | E (E is ≦35%) |
